Results as given in US20080194585A1, “Fungicidal Pyrazine Derivatives” (priority 2005, published 2008).
Read-outs that look alike come from different tables or passages of the source.

How the values were obtained:
Plasmopara viticola = assay: Test D: grape downy mildew, spray after inoculation of grape seedlings; type: in vivo; conditions: for pest or weed control at 200 ppm / Test D disease control rating: 200 ppm
From the text: Upon removal, disease ratings were made. […] A dash (-) indicates no test results.

Phytophthora infestans = assay: whole plant or invertebrate; type: in vivo; conditions: for pest or weed control at 200 ppm: Phytophthora infestans, in Solanum lycopersicum, topical, 144 h, read-out: Test F disease control rating; for Test F disease control rating: 200 ppm, 100 = 100% disease control, 0 = no control
Septoria tritici = assay: Test J: wheat leaf blotch, preventive spray on wheat seedlings; type: in vivo
From the text: A dash (-) indicates no test results.

fusarium graminearium = assay: Test I: wheat head scab, preventive spray on wheat seedlings; conditions: for pest or weed control at 200 ppm: read-out: Test I disease control rating, 200 ppm; for Test I disease control rating: 200 ppm
Protocol: (the causal agent of wheat head scab) and incubated in a saturated atmosphere at 20° C. for 72 h, and then moved to a growth chamber at 22° C. for 5 days, after which disease ratings were made.

[1] = tested on: Puccinia recondita f. sp. tritici; assay: Test K: wheat leaf rust, preventive spray on wheat seedlings; conditions: for Test K disease control rating: 200 ppm, 100 = 100% disease control, 0 = no control
Botrytis cinerea = assay: Test E: tomato botrytis, preventive spray on tomato seedlings; conditions: for Test E disease control rating: 200 ppm, 100 = 100% disease control, 0 = no control
Septoria nodorum = assay: Test H: wheat glum blotch, preventive spray on wheat seedlings; conditions: for Test H disease control rating: 200 ppm
Protocol: (the causal agent of wheat glum blotch) and incubated in a saturated atmosphere at 20° C. for 48 h, and then moved to a growth chamber at 22° C. for 5 days, after which disease ratings were made.

[2] = tested on: Erysiphe graminis f. sp. tritici; assay: Test L: wheat powdery mildew, preventive spray on wheat seedlings; conditions: for Test L disease control rating: 200 ppm
Pythium aphanidermatum = assay: Test A: bluegrass pythium blight, preventive spray on bluegrass seedlings; conditions: for Test A disease control rating: 200 ppm, 100 = 100% disease control, 0 = no control
Rhizoctonia oryzae = assay: Test G: turf brown patch, preventive spray on creeping bent grass seedlings; conditions: for Test G disease control rating: 200 ppm
Protocol: (the causal agent of turf brown patch) and incubated in a saturated atmosphere at 27° C. for 24 h, and then moved to a growth chamber at 27° C. for 5 days, after which disease ratings were made.

[3] = tested on: Colletotrichum orbiculare; assay: Test B: cucumber Colletotrichum anthracnose, preventive spray on cucumber seedlings; conditions: for Test B disease control rating: 200 ppm
Sclerotinia sclerotiorum = assay: Test C: cucumber white mold, preventive spray on cucumber seedlings; conditions: 200 ppm; 100 = 100% disease control, 0 = no control
[4] = Puccinia recondita, in Triticum aestivum, 192 h, read-out: Test K disease control rating
[5] = Botrytis cinerea, in Solanum lycopersicum, topical, 72 h, read-out: Test E disease control rating
[6] = Pythium aphanidermatum, 120 h, read-out: Test A disease control rating
[7] = 100 = 100% disease control, 0 = no control
[8] = 200 ppm, 100 = 100% disease control, 0 = no control

Cc1nc(-n2cccn2)c(=O)n(CC(C)C)c1-c1c(F)cccc1F [Compound 149, 5-Methyl-6-(2,6-difluorophenyl)-1-(2-methylpropyl)-3-(1H-pyrazol-1-yl)-2(1H)-pyrazinone]
pest or weed control at 200 ppm (Plasmopara viticola; Plasmopara viticola, 168 h, read-out: Test D disease control rating): 0%
pest or weed control at 200 ppm (Phytophthora infestans): 0%
pest or weed control at 40 ppm (Septoria tritici; Zymoseptoria tritici, 528 h, 40 ppm (*), read-out: Test J disease control rating): 100%
melting point: 105 to 106 °C
pest or weed control at 200 ppm (fusarium graminearium; Fusarium, in Triticum aestivum, topical, 192 h): 0%
pest or weed control at 40 ppm [1, 4]: 100%
pest or weed control at 40 ppm (Botrytis cinerea; [5]): 100%
pest or weed control at 40 ppm (Septoria nodorum; Parastagonospora nodorum, in Triticum aestivum, topical, 168 h, read-out: Test H disease control rating, 40 ppm (*)): 98%
pest or weed control at 40 ppm ([2]; Blumeria graminis, in Triticum aestivum, 168 h, read-out: Test L disease control rating, 40 ppm (*)): 100%
pest or weed control at 200 ppm (Pythium aphanidermatum; [6]): 0%
pest or weed control at 40 ppm (Rhizoctonia oryzae; Waitea circinata, in Agrostis stolonifera, topical, 144 h, read-out: Test G disease control rating, 40 ppm (*)): 99%
pest or weed control at 40 ppm ([3]; Colletotrichum orbiculare, in Cucumis sativus, 144 h, read-out: Test B disease control rating, 40 ppm (*)): 0%

O=c1c(-n2cccn2)nc(Cl)c(-c2c(F)ccc(F)c2F)n1-c1ccccc1 [Compound 357, 5-Chloro-1-phenyl-3-(1H-pyrazol-1-yl)-6-(2,3,6-trifluorophenyl)-2(1H)-pyrazinone]
pest or weed control at 40 ppm (Plasmopara viticola; Plasmopara viticola, 168 h, 40 ppm (marked *), 100 = 100% disease control, 0 = no control, read-out: Test D disease control rating): 0%
pest or weed control at 40 ppm (Septoria tritici; Zymoseptoria tritici, 528 h, 40 ppm (marked *), 100 = 100% disease control, 0 = no control, read-out: Test J disease control rating): 91%
melting point: 250 to 260 °C
pest or weed control at 40 ppm (fusarium graminearium; Fusarium, in Triticum aestivum, topical, 192 h, read-out: Test I disease control rating, 40 ppm (marked *), 100 = 100% disease control, 0 = no control): 91%
pest or weed control at 40 ppm [1, 4]: 99%
pest or weed control at 40 ppm (Botrytis cinerea; [5]): 99%
pest or weed control at 40 ppm (Septoria nodorum; Parastagonospora nodorum, in Triticum aestivum, topical, 168 h, read-out: Test H disease control rating, 40 ppm (marked *), 100 = 100% disease control, 0 = no control): 98%
pest or weed control at 40 ppm ([2]; Blumeria graminis, in Triticum aestivum, 168 h, read-out: Test L disease control rating, 40 ppm (marked *), 100 = 100% disease control, 0 = no control): 20%
pest or weed control at 40 ppm (Pythium aphanidermatum; [6]): 0%
pest or weed control at 40 ppm (Rhizoctonia oryzae; Waitea circinata, in Agrostis stolonifera, topical, 144 h, read-out: Test G disease control rating, 40 ppm (marked *), 100 = 100% disease control, 0 = no control): 84%
pest or weed control at 40 ppm ([3]; Colletotrichum orbiculare, in Cucumis sativus, 144 h, read-out: Test B disease control rating, 40 ppm (marked *), 100 = 100% disease control, 0 = no control): 83%

CCC(C)Cn1c(-c2ccc(F)cc2F)c(C)nc(C#N)c1=N (centres unmarked) [Compound 426, 5-(2,4-Difluorophenyl)-3,4-dihydro-3-imino-6-methyl-4-(2-methylbutyl)pyrazinecarbonitrile]
pest or weed control at 200 ppm (Plasmopara viticola; Plasmopara viticola, 168 h, 100 = 100% disease control, 0 = no control relative to controls, read-out: Test D disease control rating): 0%
pest or weed control at 200 ppm (Phytophthora infestans): 0%
pest or weed control at 200 ppm (Septoria tritici; Zymoseptoria tritici, 528 h, 200 ppm, 100 = 100% disease control, 0 = no control relative to controls, read-out: Test J disease control rating): 0%
melting point: 73 to 77 °C
pest or weed control at 200 ppm (fusarium graminearium; Fusarium, in Triticum aestivum, topical, 192 h, 100 = 100% disease control, 0 = no control relative to controls): 0%
pest or weed control at 200 ppm [1, 4]: 0%
pest or weed control at 200 ppm (Botrytis cinerea; [5]): 0%
pest or weed control at 200 ppm (Septoria nodorum; Parastagonospora nodorum, in Triticum aestivum, topical, 168 h, read-out: Test H disease control rating, 200 ppm, 100 = 100% disease control, 0 = no control relative to controls): 0%
pest or weed control at 200 ppm ([2]; Blumeria graminis, in Triticum aestivum, 168 h, read-out: Test L disease control rating, 200 ppm, 100 = 100% disease control, 0 = no control relative to controls): 80%
pest or weed control at 200 ppm (Pythium aphanidermatum; [6]): 82%
pest or weed control at 200 ppm (Rhizoctonia oryzae; Waitea circinata, in Agrostis stolonifera, topical, 144 h, read-out: Test G disease control rating, 200 ppm, 100 = 100% disease control, 0 = no control relative to controls): 0%
pest or weed control at 200 ppm ([3]; Colletotrichum orbiculare, in Cucumis sativus, 144 h, read-out: Test B disease control rating, 200 ppm, 100 = 100% disease control, 0 = no control relative to controls): 0%

Cc1ccn(-c2nc(Cl)c(C3CCCC3)n(CC(C)C)c2=O)n1 [compound 293]
Test D disease control rating (Plasmopara viticola; [7]): 0%
Test F disease control rating (Phytophthora infestans): 0%
Test J disease control rating (Septoria tritici; [8]): 97%
Test I disease control rating (fusarium graminearium; [7]): 0%
Test K disease control rating [1]: 88%
Test E disease control rating (Botrytis cinerea): 95%
Test H disease control rating (Septoria nodorum; [7]): 0%
Test L disease control rating [2, 7]: 0%
Test C disease control rating (Sclerotinia sclerotiorum): 0%
Test A disease control rating (Pythium aphanidermatum): 0%
Test G disease control rating (Rhizoctonia oryzae; [7]): 0%
Test B disease control rating [3, 7]: 0%

Cc1ccn(-c2nc(Cl)c(C3CCCCC3)n(CC(C)C)c2=O)n1 [compound 294]
Test D disease control rating (Plasmopara viticola; [7]): 0%
Test F disease control rating (Phytophthora infestans): 0%
Test J disease control rating (Septoria tritici; [8]): 95%
Test I disease control rating (fusarium graminearium; [7]): 0%
Test K disease control rating [1]: 54%
Test E disease control rating (Botrytis cinerea): 31%
Test H disease control rating (Septoria nodorum; [7]): 0%
Test L disease control rating [2, 7]: 0%
Test C disease control rating (Sclerotinia sclerotiorum): 0%
Test A disease control rating (Pythium aphanidermatum): 0%
Test G disease control rating (Rhizoctonia oryzae; [7]): 0%
Test B disease control rating [3, 7]: 0%

Cc1ccn(-c2nc(Cl)c(CC(C)C)n(CC(C)C)c2=O)n1 [compound 295]
Test D disease control rating (Plasmopara viticola; [7]): 0%
Test F disease control rating (Phytophthora infestans): 0%
Test J disease control rating (Septoria tritici; [8]): 53%
Test I disease control rating (fusarium graminearium; [7]): 0%
Test K disease control rating [1]: 27%
Test E disease control rating (Botrytis cinerea): 0%
Test H disease control rating (Septoria nodorum; [7]): 0%
Test L disease control rating [2, 7]: 0%
Test C disease control rating (Sclerotinia sclerotiorum): 0%
Test A disease control rating (Pythium aphanidermatum): 0%
Test G disease control rating (Rhizoctonia oryzae; [7]): 0%
Test B disease control rating [3, 7]: 0%

CCC(C)Cn1c(-c2c(F)cccc2F)c(Cl)nc(C(=O)NC(C)C)c1=O (centres unmarked) [compound 296]
Test D disease control rating (Plasmopara viticola; [7]): 53%
Test F disease control rating (Phytophthora infestans): 0%
Test J disease control rating (Septoria tritici; [8]): 100%
Test I disease control rating (fusarium graminearium; [7]): 0%
Test K disease control rating [1]: 100%
Test E disease control rating (Botrytis cinerea): 100%
Test H disease control rating (Septoria nodorum; [7]): 100%
Test L disease control rating [2, 7]: 93%
Test C disease control rating (Sclerotinia sclerotiorum): 85%
Test A disease control rating (Pythium aphanidermatum): 0%
Test G disease control rating (Rhizoctonia oryzae; [7]): 0%
Test B disease control rating [3, 7]: 93%

CCC(C)Cn1c(-c2c(F)cccc2F)c(Cl)nc(C(=O)NCC2CC2)c1=O (centres unmarked) [compound 300]
Test D disease control rating (Plasmopara viticola; [7]): 40%
Test F disease control rating (Phytophthora infestans): 0%
Test J disease control rating (Septoria tritici; [8]): 100%
Test I disease control rating (fusarium graminearium; [7]): 0%
Test K disease control rating [1]: 100%
Test E disease control rating (Botrytis cinerea): 100%
Test H disease control rating (Septoria nodorum; [7]): 99%
Test L disease control rating [2, 7]: 97%
Test C disease control rating (Sclerotinia sclerotiorum): 0%
Test A disease control rating (Pythium aphanidermatum): 0%
Test G disease control rating (Rhizoctonia oryzae; [7]): 16%
Test B disease control rating [3, 7]: 93%

CCC(C)CNC(=O)c1nc(Cl)c(-c2c(F)cccc2F)n(CC(C)CC)c1=O (centres unmarked) [compound 301]
Test D disease control rating (Plasmopara viticola; [7]): 0%
Test F disease control rating (Phytophthora infestans): 0%
Test J disease control rating (Septoria tritici; [8]): 98%
Test I disease control rating (fusarium graminearium; [7]): 0%
Test K disease control rating [1]: 99%
Test E disease control rating (Botrytis cinerea): 100%
Test H disease control rating (Septoria nodorum; [7]): 87%
Test L disease control rating [2, 7]: 68%
Test C disease control rating (Sclerotinia sclerotiorum): 0%
Test A disease control rating (Pythium aphanidermatum): 0%
Test G disease control rating (Rhizoctonia oryzae; [7]): 0%
Test B disease control rating [3, 7]: 0%
